# Measurements: ChEMBL document CHEMBL5727202, “Aryl acylsulfonamides as BLT1 antagonists” (2019)
# Target: Leukotriene B4 receptor 1 (Homo sapiens, UniProt Q15722)
# Test: BLT-1 cAMP Assay: The ability of compounds to antagonize the human BLT1 receptor was determined using a kit to measure changes in intracellular cyclic AMP levels (cAMP dynamic assay kit, Cisbio Cat. No. 62AM4PEC). HEK293 cells recombinantly expressing human BLT1 receptor, previously frozen in Recovery Medium (Life Technologies, Cat. No. 12648-010) were thawed and diluted into assay medium (HBSS (Hyclone SH 30268.01), 20 mM HEPES (Gibco 15630-106), 800 μM IBMX (Sigma I5879), 0.1% DTPA BSA (Perkin Elmer CR84-100)). The cell suspension was centrifuged at 200×g for 10 min and then resuspended in fresh assay medium to a density of 2.5×10^5 cells/mL. A Labcyte Echo 550 acoustic dispenser was used to transfer 25 nL of test compound dissolved in DMSO into the wells of a dry 384-well plate (Greiner 784075). All subsequent liquid additions were performed using a BIORAPTR (FRD; Beckman Coulter). Next, 5 μL of cell suspension was added and incubated for 20 min. at 37° C. and 5% CO2 in a humidified plastic tray. To test for agonist activity […] of assay buffer containing forskolin (Sigma F-6886. 4 μM for BLT1) was added and incubated for 30 minutes at 37° C. and 5% CO2 in a humidified plastic tray. To test for antagonist activity 5 μL of assay buffer containing forskolin (Sigma F-6886. 4 μM for BLT1) and either LTB4 (Sigma Aldrich L0517; 2 nM BLT1) was added and incubated for 30 minutes at 37° C. and 5% CO2 in a humidified plastic tray.The levels of cAMP were detected using the CisBio kit following the manufacturer's instructions: cAMP-d2 vial was reconstituted with distilled water and then diluted accordingly with conjugate & lysis buffer. 5 μL of cAMP-d2 working solution was added to all of the wells of the assay plate. cAMP-Cryptate vial was reconstituted with distilled water and then diluted accordingly with conjugate & lysis buffer. 5 μL of cAMP-Cryptate working solution were added to the assay plate. […]
# Format: cell-based
# Leukotriene B4 receptor 1, sequence (Q15722 whole entry): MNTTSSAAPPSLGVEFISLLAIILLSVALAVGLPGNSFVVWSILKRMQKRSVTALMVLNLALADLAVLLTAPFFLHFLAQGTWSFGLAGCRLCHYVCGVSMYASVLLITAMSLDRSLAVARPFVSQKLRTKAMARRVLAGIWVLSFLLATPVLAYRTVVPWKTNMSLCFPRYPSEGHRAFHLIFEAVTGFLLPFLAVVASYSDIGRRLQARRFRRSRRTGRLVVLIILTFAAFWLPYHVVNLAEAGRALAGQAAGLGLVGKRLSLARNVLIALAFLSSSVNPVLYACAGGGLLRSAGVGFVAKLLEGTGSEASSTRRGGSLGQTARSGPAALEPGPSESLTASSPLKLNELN
row,EC50 [µM],SMILES
1,0.538,CCn1nccc1C[C@@H]1COc2cc(-c3ccccc3C(=O)NS(=O)(=O)C3(C)CC3)ccc2[C@H]1O (racemic)
2,0.035,"O=C(NS(=O)(=O)C(F)(F)F)c1ccc(F)cc1-c1ccc2c(c1)OC[C@H](Cc1ccc(-c3ccccc3)cc1)[C@H]2O (single isomer, unassigned)"
3,0.06,"CC1(S(=O)(=O)NC(=O)c2ccccc2-c2ccc3c(c2)OC[C@@H](Cc2coc(-c4ccccc4)n2)[C@@H]3O)CC1 (single isomer, unassigned)"
